Laboratory results as given in PubChem BioAssay AID602191 (Broad Institute, 2012).
Active and inactive are the calls of the source.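 How the source made its calls: active means fitted curve reaches 40% activation at a concentration no higher than the top valid tested dose; inconclusive means flat fit between 30% and 70% activation, or poor fit; inactive means uptake decrease, flat fit within 30% of zero, the rest.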

The compounds below were run against Scavenger receptor class B member 1 (Mus musculus) (UniProt Q61009) (assay: enhancers of DiI-HDL lipid transfer via SR-BI – cell-based, ldlA[mSR-BI] CHO, DiI fluorescence, cherry-pick, dose response (AID 602191;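 further: cell fluorescence from internalized DiI-labeled HDL after washing; 0% = median of DMSO wells and 100% = twice the DMSO signal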)). Conditions: ldlA[mSR-BI] CHO cells, 3 h, at 35 µM (top of the series).
Chain of Scavenger receptor class B member 1 (Mus musculus) (Q61009 whole entry, looked up): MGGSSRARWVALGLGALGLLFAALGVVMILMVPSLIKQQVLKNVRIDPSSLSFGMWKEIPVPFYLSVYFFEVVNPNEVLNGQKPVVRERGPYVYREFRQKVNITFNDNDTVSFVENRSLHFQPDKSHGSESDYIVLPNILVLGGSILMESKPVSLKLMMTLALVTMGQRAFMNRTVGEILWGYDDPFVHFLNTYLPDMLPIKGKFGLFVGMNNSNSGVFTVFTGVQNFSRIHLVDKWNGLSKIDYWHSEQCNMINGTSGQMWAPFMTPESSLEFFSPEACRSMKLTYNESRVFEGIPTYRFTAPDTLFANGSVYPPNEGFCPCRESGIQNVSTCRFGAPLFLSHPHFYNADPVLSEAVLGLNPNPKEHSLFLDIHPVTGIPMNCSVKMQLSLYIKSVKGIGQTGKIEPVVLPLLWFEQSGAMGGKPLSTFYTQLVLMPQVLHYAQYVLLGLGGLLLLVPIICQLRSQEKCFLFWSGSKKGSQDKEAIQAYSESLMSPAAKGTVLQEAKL

Row | SMILES | activation (HDL uptake increase)
1 | O=C(COC(=O)c1ccco1)c1ccc(S(=O)(=O)N2CCCCC2)cc1 | -16.4% (inactive)
2 | CCN1C(=O)C(CC(=O)NC2CCCCC2)N(CC)C1=O (centres undefined) | 7.58% (inactive)
3 | Cc1ccc(NC(=O)c2nc[nH]c2C(=O)NCCN(CCNC(=O)c2[nH]cnc2C(=O)Nc2ccc(C)cc2)CCNC(=O)c2[nH]cnc2C(=O)Nc2ccc(C)cc2)cc1 | 8.14% (inactive)
4 | CCOc1ccc(S(=O)(=O)N2CCN=C2c2ccccc2)c(C)c1C | -9.83% (inactive)
5 | COc1ccc2c(c1OC)C(=O)OC2CC(=O)O (centres undefined) | 3.81% (inactive)
6 | O=C(CCC(=O)N1CCOc2ccc(Cl)cc21)NCCCN1CCN(Cc2ccccc2)CC1 | 4.6% (inactive)
7 | CC(C)=C1C2CCC1C(C(=O)NCCc1ccccc1)C2C(=O)O (centres undefined) | -7.43% (inactive)
8 | Cc1ccc(C(=O)N/C(=C/c2ccccc2)C(=O)NC(Cc2ccccc2)C(=O)O)cc1 (centres undefined) | 8.63% (inactive)
9 | O=C(CCNS(=O)(=O)c1cccs1)N1CCc2ccccc2C1 | -0.366% (inactive)
10 | CCOC(=O)C1CCCN(C(=O)c2cc(S(=O)(=O)N3CCCCCC3)ccc2OC)C1 (centres undefined) | -9.78% (inactive)
11 | COc1cccc(OC)c1C(=O)N1CCN(Cc2ccccc2C)CC1 | -7.18% (inactive)
12 | Cc1cccc(N2C(=O)N3[C@H](c4ccc(Br)cc4)[C@@H]4C(=O)N(C(C)(C)C)C(=O)[C@@H]4[C@]3(C)C2=O)c1 | 6.14% (inactive)
13 | CCOC(=O)C1CCN(S(=O)(=O)c2cc(C(=O)N3CCCCC3)ccc2OC)CC1 | -3.08% (inactive)
14 | COC(=O)[C@@H]1C[C@@]2(O)[C@H](O)[C@H](O)[C@H](O)C[C@H]2N1Cc1cccc2ccccc12 | 8.8% (inactive)
15 | CN(C)S(=O)(=O)c1ccc(N2CCCC2)c(C(=O)NC2CCC(O)CC2)c1 (centres undefined) | -3.29% (inactive)
16 | CCOC(=O)C1CCCN(C(=O)CS(=O)(=O)Cc2ccccc2)C1 (centres undefined) | 7.75% (inactive)
17 | NC(=O)C1CCN(C(=O)C2CC(=O)N(Cc3ccccc3)C2)CC1 (centres undefined) | -2.16% (inactive)
18 | Cn1cc(CN2CCC(O)CC2)c(-c2ccc(Oc3ccccc3)cc2)n1 | -5.7% (inactive)
19 | O=C(NCc1cnn(-c2ccccc2)c1)C1CCC(=O)N(C2CC2)C1 (centres undefined) | -6.78% (inactive)
20 | COC(=O)Cc1csc(Nc2ccccc2)n1 | 0.176% (inactive)
21 | CCCCC(=O)OCC(=O)C1(O)Cc2c(O)c3c(c(O)c2C(OC2CC(NC(=O)C(F)(F)F)C(O)C(C)O2)C1)C(=O)c1c(OC)cccc1C3=O (centres undefined) | 16.6% (inactive)
22 | Cn1nnnc1SCCNC(=O)C1CCC(=O)N(Cc2ccccc2F)C1 (centres undefined) | -10.7% (inactive)

More lines, now with the values ahead:

Row | activation (HDL uptake increase) | SMILES
23 | -8.99% (inactive) | CSCCC(NC(=O)c1ccco1)C(=O)NCc1ccc(F)cc1 (centres undefined)
24 | -3.69% (inactive) | CC(=O)Nc1ccc(SCC(=O)NC(=O)c2ccc(S(=O)(=O)N(C)C)cc2)cc1
25 | -7.36% (inactive) | COc1ccc(C(C(=O)NC2CCCCC2)N(C(=O)CCl)c2ccccc2Cl)cc1 (centres undefined)
26 | 47.8% (inactive) | C=CCC[C@@H](Cc1ccc(F)cc1)C(=O)OC[C@@H](Cc1c[nH]c2ccccc12)NC(=O)[C@@H](CC=C)CC(=O)N[C@@H](CO)Cc1ccccc1
27 | -12.4% (inactive) | CCN(CC(=O)Nc1ccc(OC)cc1)C(=O)c1ccc(=O)n(Cc2ccccc2)n1
28 | -11.4% (inactive) | CCCNC(=O)c1onc(CSc2ccc(F)cc2)c1C(=O)NCCOC
29 | -9.53% (inactive) | O=C(O)CCn1cc(/C=C/C(=O)c2ccc(Cl)cc2)c(-c2ccc(Br)cc2)n1
30 | 1.38% (inactive) | COc1cccc(CC(=O)Nc2ccccc2C(=O)N2CCOCC2)c1
31 | -6.64% (inactive) | COc1ccc(N2CCN(C(=O)NC(=O)c3ccc(Cl)cc3)CC2)cc1
32 | -16% (inactive) | COc1ccc(C(=O)NCc2nnc(SCC(=O)NCc3ccc(F)cc3)o2)cc1
33 | -8.42% (inactive) | CCN(CC)C(=O)C1CC(=O)N(c2ccc(OC)cc2)C1c1ccc(OC)cc1 (centres undefined)
34 | -7.49% (inactive) | COCCN(Cc1nnc(-c2cccs2)o1)C(=O)c1cccc(S(=O)(=O)N2CCOCC2)c1
